The text below walks through data of patent US10106519B2, “3-phenyl-7-hydroxy-isocoumarins as macrophage migration inhibitory factor (MIF) inhibitors” (The Provost, Fellows, Foundation Scholars, & the Other …, priority 2014, dated 2018).

“Also recorded” adds a separate entry of the source.

In experiment [1] the target is T1, MIF tautomerase (Homo sapiens, UniProt P14174).
T1 construct: host or cells: E. coli BL21
T1 sequence (P14174 2-115 limits assumed): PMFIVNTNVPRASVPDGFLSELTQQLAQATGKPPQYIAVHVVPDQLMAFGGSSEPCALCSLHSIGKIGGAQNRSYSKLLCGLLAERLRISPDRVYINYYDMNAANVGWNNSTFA
The experiment is described as follows: MIF tautomerase inhibition assay. In kind it is biochemical. To be noted: panel of 25 potential inhibitors, 100 μM (FIG. 1, FIG. 3). On the procedure:
Human recombinant MIF was purified as per Bernhagen et al. (Biochemistry, 1994. 33(47): p. 14144-55). Briefly, BL21 E. coli cells expressing the pET11b-MIF construct were grown to an absorbance at 600 nm (OD) of […]. Isopropyl 1-thio-P-D-galactopyranoside (IPTG) (Sigma—cat no. 16758) was added to a final concentration of 1 mM to induce expression of the MIF gene and incubated for another 3 hours. Bacteria were then harvested by centrifugation and the cell pellets were then frozen. Protein purification was then out sourced to Scottish Biomedical, where the bacterial pellets were thawed and resuspended in 3 ml of Tris-buffered saline. The bacteria were then lysed by adding an equivalent number of glass beads and vortexing strongly for 10 minutes. Glass beads were removed by centrifugation at 1000 g for 10 minutes and the bacterial extract was centrifuged at 1000 g for a further 30 minutes. The supernatant was then sterile-filtered through a […] membrane filter and put through a MONO Q anion exchange chromatography column. MIF was eluted using Tris-buffered saline in the first flow-through fractions and pooled and placed on ice. These pooled fractions were then applied to a C8-SepPak reverse phase column. Unbound material was eluted by washing with water and 20% acetonitrile/water. MIF was then eluted using 6 column volumes of 60% acetonitrile/water. This sample was then renatured by dissolving MIF at a concentration of […] in 20 mM sodium phosphate buffer containing 8M urea and 5 mM DTT and dialysed against 20 mM sodium phosphate buffer. […]
L-dopachrome methyl ester was prepared at 2.4 mM through oxidation of L-3,4-dihydroxyphenylalanine methyl ester with sodium periodate. The solution was mixed well and placed at room temperature for 5 minutes before being placed on ice in the dark. 100 ng of rMIF was added to each of the Tautomerase Inhibitors or ISO-1 at a number of concentrations (1, 50 and 100 μM) with substrate. The decrease in absorbance was measured with a spectrophotometer at 475 nm every 10 seconds for 10 minutes.
The rate of the reaction of rMIF and substrate alone was measured over time at 475 nm. This was compared to the rate of this reaction with the addition of 100 μM of each of the inhibitors. Inhibition was calculated as the percentage in the reduction of the rate of change with the addition of the inhibitor averaged over five minutes.

Experiment [2] has as its system LPS induced TNF-α production. The experiment in a line: Inhibition of LPS induced TNF-α production in RAW 264.7 macrophage cells (ELISA). The format is cell-based, mouse. On the procedure: RAW 264.7 macrophage cells were plated at 1×10^5/ml in 450 μl of medium in a 48 well plate. 16 hours later cells were treated with ISO-1 or Tautomerase Inhibitors at a final concentration of 10, 50 or 100 μM for 30 minutes before stimulation with 100 ng/ml LPS. Supernatants were collected after 20 hours for determination of TNF-α levels. TNF-α levels were determined using a TNF-α specific ELISA (CAT # DY410 R&D Syst).
96 well plates were coated with 50 μl of Capture Antibody ([…]) in PBS and sealed and incubated overnight at 4° C. Plates were then washed three times in 0.05% PBS Tween and plates blotted. Plates were blocked by adding 150 μl of 1% BSA in PBS (Gibco—cat no. 14190-094) to each well and incubated at room temperature for 2 hours. Plates were washed again as previously described. 50 μl of sample or standard was added to each well and incubated for overnight at 4° C. Plates were then washed again as described. 50 μl of the detection Antibody (200 ng/ml) in 1% BSA in PBS was added to each well and incubated for 2 hours at room temperature. Plates were then washed again as described. 50 μl of working concentration of Streptavidin—HRP was added to each well and plates were covered and incubated for 20 minutes at room temperature. 50 μl of substrate solution (One OPD tablet and one urea hydrogen peroxide/buffer tablet were dissolved in 20 ml of water to yield a ready to use buffered solution, Sigma—cat no. 9187-50) was added to each well and incubated for 20 minutes at room temperature. 25 μl of 2N H2SO4 was added to each well to stop the reaction. The optical density of each well was then measured with a spectrophotometer at 450 nm.
Initially the panel of 25 novel potential tautomerase inhibitors was screened in an in-vitro system. In order to do this we exploited the fact that MIF is needed for optimal LPS induced TNF-α production. We therefore reasoned that our potential TIs should be able to inhibit LPS induced TNF-α in RAW macrophage murine cells. RAW macrophage murine cells were plated at 37° C. in a humidified 5% CO2 incubator. 16 hours later the cells were pre-treated with each of the inhibitors at concentration of 100, 50 or 10 μM for 30 minutes 100 ng/ml of LPS was then added to the cells and supernatants were collected after 16 hours and analysed for TNF-α production by ELISA.

The subject of experiment [3] is LPS mediated PGE-2 production. The experiment is described as follows: PGE-2 production in LPS treated RAW macrophage cells (ELISA). In kind it is cell-based, murine. To be noted: 100 μM inhibitor, 100 ng/ml LPS (FIG. 4). On the procedure:
Raw macrophage murine cells were plated at a cell density of 1×10^5 and pre-treated with 100 μM of each of the inhibitors […] for 30 minutes at 37° C. in a humidified 5% CO2 incubator. Raw macrophage cells were then treated with 100 ng/ml of LPS and supernatants were collected after 16 hours at 37° C. in a humidified 5% CO2 incubator and analysed for PGE-2 production. Levels of PGE-2 were measured by ELISA. (CAT # KGE004 R&D Syst).
For orientation: In an ELISA, binding on a coated surface is turned into a signal by an enzyme label.

Experiment [4] concerns Lewis Lung carcinoma cells (LLC). The experiment is described as follows: LLC-GLuc proliferation assay with rMIF. In kind it is cell-based, mouse. To be noted: 100 μM inhibitor, 100 ng/ml rMIF, 48 hours (FIG. 5). On the procedure: LLC-GLuc cells were plated in a 6 well plate at a density of 5×10^4 cells/ml in DMEM supplemented with P/S, 10% FCS and L-Glu. After overnight adherence, 100 ng/ml MIF was added along with the inhibitors or DMSO to a total of 1 ml serum free medium. Cells were harvested after 48 hours by trypsinisation and counted in a haemocytometer.
The ability of candidate compounds to reduce cellular proliferation was also examined. For this assay, LLC cells were plated at a cell density of 5×10^4 cells/ml. The cells were then pre-treated with TI 19 or ISO-1 at a concentration of 100 μM. The cells were then treated with 100 ng/ml of recombinant MIF. The cells were incubated at 37° C. in a humidified 5% CO2 incubator and after 48 hours the cells were harvested and counted.

Take `Cc1ccccc1-c1cc2ccccc2c(=O)o1` [TI 19]: the “inhibition of MIF tautomerase enzymatic activity, in words” value in experiment [1] is given as “highest percentage inhibition of MIF enzymatic activity; also recorded: significantly more potent than the commercially available small molecule MIF inhibitor ISO-1”. For the same compound, the “reduction of TNF-α production, in words” value in experiment [2] (10 μM inhibitor (FIG. 2C)) is listed as “more effective than ISO-1”; in experiment [2] (50 μM inhibitor (FIG. 2B)), “more effective than the commercial standard ISO-1”; in experiment [2] (concentration not given) it was “more effective at reducing TNF-α than the commercially available ISO-1; also recorded: reduction in TNF-α production”. Moreover, the “reduction of LPS mediated PGE-2 production, in words” value in experiment [3] is reported as “significantly reduces; also recorded: greater reduction in PGE-2 than ISO-1; also recorded: reduced PGE-2 levels to comparable levels in untreated cells”. For the same compound, the “reduction of MIF induced proliferation, in words” value in experiment [4] was “inhibited significantly; also recorded: reduced proliferation to levels comparable with untreated cells; also recorded: reduced cell proliferation”.
